Test results taken from ChEMBL document CHEMBL3588755, “hERG Channel Inhibitory Daphnane Diterpenoid Orthoesters and Polycephalones A and B with Unprecedented Skeletons from Gnidia polycephala” (J Nat Prod, 2015).

Legend:
hERG (KCNH2) = hERG (KCNH2) (Homo sapiens, UniProt Q12809); test: Inhibition of human ERG expressed in Xenopus laevis oocytes at 100 uM incubated for 3 mins at holding potential of -100 mV followed by depolarization to +20 mV and repolarization to -50 mV by two-microelectrode voltage clamp assay; type: cell-based; details: Xenopus laevis oocytes expressing human ERG
hERG (KCNH2), sequence (Q12809 whole entry): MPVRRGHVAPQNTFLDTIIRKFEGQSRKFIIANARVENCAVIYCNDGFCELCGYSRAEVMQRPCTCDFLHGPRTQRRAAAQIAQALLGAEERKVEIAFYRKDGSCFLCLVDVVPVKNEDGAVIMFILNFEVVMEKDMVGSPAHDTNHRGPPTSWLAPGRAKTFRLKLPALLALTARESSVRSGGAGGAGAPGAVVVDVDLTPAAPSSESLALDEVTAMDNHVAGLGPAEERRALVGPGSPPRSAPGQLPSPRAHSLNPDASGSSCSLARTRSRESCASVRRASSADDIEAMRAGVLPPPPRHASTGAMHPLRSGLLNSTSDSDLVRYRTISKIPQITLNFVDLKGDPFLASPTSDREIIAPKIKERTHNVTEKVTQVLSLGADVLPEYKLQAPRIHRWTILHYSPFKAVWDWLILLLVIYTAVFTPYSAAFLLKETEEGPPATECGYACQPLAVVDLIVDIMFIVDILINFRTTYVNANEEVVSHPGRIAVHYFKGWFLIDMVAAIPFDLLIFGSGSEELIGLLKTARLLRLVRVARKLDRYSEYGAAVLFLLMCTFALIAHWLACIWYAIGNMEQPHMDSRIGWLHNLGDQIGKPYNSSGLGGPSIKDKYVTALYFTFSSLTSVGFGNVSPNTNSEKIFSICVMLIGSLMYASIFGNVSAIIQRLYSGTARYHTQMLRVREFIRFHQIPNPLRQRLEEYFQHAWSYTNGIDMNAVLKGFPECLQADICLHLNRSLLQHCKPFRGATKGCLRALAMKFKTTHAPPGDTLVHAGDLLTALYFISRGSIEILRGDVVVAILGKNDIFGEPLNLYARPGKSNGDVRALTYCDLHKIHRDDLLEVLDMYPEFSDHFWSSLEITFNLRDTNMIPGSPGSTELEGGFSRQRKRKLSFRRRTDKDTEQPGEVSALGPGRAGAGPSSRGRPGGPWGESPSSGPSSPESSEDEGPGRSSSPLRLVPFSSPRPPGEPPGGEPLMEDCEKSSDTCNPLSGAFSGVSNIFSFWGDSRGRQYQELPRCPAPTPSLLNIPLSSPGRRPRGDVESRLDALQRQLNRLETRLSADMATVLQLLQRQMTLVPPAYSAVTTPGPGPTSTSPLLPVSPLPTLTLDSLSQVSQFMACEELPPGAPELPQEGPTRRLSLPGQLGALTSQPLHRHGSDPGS

[1] = Retention time of the compound by HPLC method; type: physicochemical

Row | SMILES | inhibition at 0.05 h, 100 µM (hERG (KCNH2)) | Retention_time [1]
1 | C=C(C)[C@]12OC3(/C=C\C=C/CCCCC)O[C@@H]1[C@@H]1[C@@H]4O[C@]4(CO)[C@@H](O)[C@]4(O)C(=O)C(C)=C[C@H]4[C@@]1(O3)[C@H](C)[C@H]2OC(=O)c1ccccc1 | 42.5% | 23.5 min
2 | C=C(C)[C@@]12C[C@@H](C)[C@@]34OC(/C=C\C=C/CCCCC)(O[C@@H]1[C@@H]3[C@@H]1O[C@]1(CO)[C@@H](O)[C@]1(O)C(=O)C(C)=C[C@H]14)O2 | 55.4% | 18.9 min
3 | C=C(C)[C@]12OC3(/C=C/C=C/CCCCC)O[C@@H]1[C@@H]1[C@@H]4O[C@]4(CO)[C@@H](O)[C@]4(O)C(=O)C(C)=C[C@H]4[C@@]1(O3)[C@H](C)[C@H]2OC(=O)c1ccccc1 | 51.3% | 25.5 min
